In patent US20220324865A1 (Bayer Aktiengesellschaft, priority 2018, published 2022):

target: T1, human EP3 receptor (Homo sapiens, UniProt P43115); assay: Cellular in vitro assay for determining EP3 receptor activity (human EP3 cell line, sulprostone-stimulated calcium luminescence); assay type: cell-based; conditions: CHO cells expressing human EP3 and mitochondrial Clytin; antagonist mode, sulprostone at EC50; read-out: EP3 CHO mtCLY ANTAG IC50
T1 construct: expressed in transfected cells; host or cells: CHO K1 (Chinese Hamster Ovary), stably co-transfected with Galpha16 and mitochondrial clytin
T1 sequence (P43115 1-390): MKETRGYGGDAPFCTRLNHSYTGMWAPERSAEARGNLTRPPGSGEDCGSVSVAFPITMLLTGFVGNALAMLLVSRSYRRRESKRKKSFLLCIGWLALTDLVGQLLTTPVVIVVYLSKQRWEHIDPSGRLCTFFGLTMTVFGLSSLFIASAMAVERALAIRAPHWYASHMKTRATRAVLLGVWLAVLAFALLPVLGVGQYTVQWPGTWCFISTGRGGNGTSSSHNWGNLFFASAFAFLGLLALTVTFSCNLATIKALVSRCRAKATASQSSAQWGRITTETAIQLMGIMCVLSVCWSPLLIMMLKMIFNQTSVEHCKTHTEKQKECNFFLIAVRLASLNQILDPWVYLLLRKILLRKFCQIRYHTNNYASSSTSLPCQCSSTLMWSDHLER
Outline: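 CHO K1 cells stably expressing human EP3 with Gα16 and mitochondrial Clytin, loaded overnight with coelenterazine. Compounds added 10 min before sulprostone at its EC50; antagonism read immediately as reduced calcium-driven luminescence, quadruplicate points.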

IC50 [nM] | SMILES
0.95 | Cc1cc(CNC(=O)c2nn3cc(-c4cnc5cccc(C)c5c4)[nH]c(=O)c3c2C(C)C)on1 [Example 4-41, N-[(3-Methyl-1,2-oxazol-5-yl)methyl]-6-(5-methylquinolin-3-yl)-4-oxo-3-(propan-2-yl)-4,5-dihydropyrazolo[1,5-a]pyrazine-2-carboxamide]
4.45 | Cc1cccc2ncc(-c3cn4nc(C(=O)NCC5CNC(=O)O5)c(C(C)C)c4c(=O)[nH]3)cc12 (stereo not drawn) [Example 4-42, 3-Isopropyl-6-(5-methyl-3-quinolyl)-4-oxo-N-[(2-oxooxazolidin-5-yl)methyl]-5H-pyrazolo[1,5-a]pyrazine-2-carboxamide]
0.84 | Cc1cccc2ncc(-c3cn4nc(C(=O)NC5(c6ccccc6)CC5)c(C(C)C)c4c(=O)[nH]3)cc12 [Example 4-43, 6-(5-Methylquinolin-3-yl)-4-oxo-N-(1-phenylcyclopropyl)-3-(propan-2-yl)-4,5-dihydropyrazolo[1,5-a]pyrazine-2-carboxamide]
1.45 | Cc1cccc2ncc(-c3cn4nc(C(=O)NC(CCO)c5ccccc5Cl)c(C(C)C)c4c(=O)[nH]3)cc12 (stereo not drawn) [Example 4-44, N-[1-(2-Chlorophenyl)-3-hydroxypropyl]-3-isopropyl-6-(5-methyl-3-quinolyl)-4-oxo-5H-pyrazolo[1,5-a]pyrazine-2-carboxamide]
0.61 | COc1cccc(C(CCO)NC(=O)c2nn3cc(-c4cnc5cccc(C)c5c4)[nH]c(=O)c3c2C(C)C)c1 (stereo not drawn) [Example 4-45, N-[3-Hydroxy-1-(3-methoxyphenyl)propyl]-3-isopropyl-6-(5-methyl-3-quinolyl)-4-oxo-5H-pyrazolo[1,5-a]pyrazine-2-carboxamide]
1.05 | Cc1cccc2ncc(-c3cn4nc(C(=O)NC(C)c5ccccc5OC(F)F)c(C(C)C)c4c(=O)[nH]3)cc12 (stereo not drawn) [Example 4-46, N-{1-[2-(Difluoromethoxy)phenyl]ethyl}-3-isopropyl-6-(5-methylquinolin-3-yl)-4-oxo-4,5-dihydropyrazolo[1,5-a]pyrazine-2-carboxamide]
3.1 | Cc1ccnc(C(C)NC(=O)c2nn3cc(-c4cnc5cccc(C)c5c4)[nH]c(=O)c3c2C(C)C)n1 (stereo not drawn) [Example 4-47, 3-Isopropyl-N-[1-(4-methylpyrimidin-2-yl)ethyl]-6-(5-methyl-3-quinolyl)-4-oxo-5H-pyrazolo[1,5-a]pyrazine-2-carboxamide]
4.75 | Cc1cccc2ncc(-c3cn4nc(C(=O)NCc5ccc(CN6CCCC6)cc5)c(C(C)C)c4c(=O)[nH]3)cc12 [Example 4-48, 6-(5-Methylquinolin-3-yl)-4-oxo-3-(propan-2-yl)-N-({4-[(pyrrolidin-1-yl)methyl]phenyl}methyl)-4,5-dihydropyrazolo[1,5-a]pyrazine-2-carboxamide]
3.95 | CC[C@@H](NC(=O)c1nn2cc(-c3cnc4cccc(C)c4c3)[nH]c(=O)c2c1C(C)C)c1ccccc1 [Example 4-49, 6-(5-Methylquinolin-3-yl)-4-oxo-N-[(1R)-1-phenylpropyl]-3-(propan-2-yl)-4,5-dihydropyrazolo[1,5-a]pyrazine-2-carboxamide]
8.3 | Cc1cccc2ncc(-c3cn4nc(C(=O)NC5(c6ccc(Cl)cc6)CCC5)c(C(C)C)c4c(=O)[nH]3)cc12 [Example 4-50, N-[1-(4-Chlorophenyl)cyclobutyl]-6-(5-methylquinolin-3-yl)-4-oxo-3-(propan-2-yl)-4,5-dihydropyrazolo[1,5-a]pyrazine-2-carboxamide]

Further lines, the compound ahead of its results:

SMILES | IC50 [nM]
Cc1cccc2ncc(-c3cn4nc(C(=O)Nc5cnn(C)c5)c(C(C)C)c4c(=O)[nH]3)cc12 [Example 4-24, N-(1-Methyl-1H-pyrazol-4-yl)-6-(5-methylquinolin-3-yl)-4-oxo-3-(propan-2-yl)-4,5-dihydropyrazolo[1,5-a]pyrazine-2-carboxamide] | 1.15
Cc1cccc2ncc(-c3cn4nc(C(=O)NCc5ccncc5)c(C(C)C)c4c(=O)[nH]3)cc12 [Example 4-25, 6-(5-Methylquinolin-3-yl)-4-oxo-3-(propan-2-yl)-N-[(pyridin-4-yl)methyl]-4,5-dihydropyrazolo[1,5-a]pyrazine-2-carboxamide] | 3.25
Cc1cccc2ncc(-c3cn4nc(C(=O)NCc5ccccn5)c(C(C)C)c4c(=O)[nH]3)cc12 [Example 4-26, 6-(5-Methylquinolin-3-yl)-4-oxo-3-(propan-2-yl)-N-[(pyridin-2-yl)methyl]-4,5-dihydropyrazolo[1,5-a]pyrazine-2-carboxamide] | 2.75
Cc1cccc2ncc(-c3cn4nc(C(=O)N[C@H](C)c5ccccc5)c(C(C)C)c4c(=O)[nH]3)cc12 [Example 4-27, 6-(5-Methylquinolin-3-yl)-4-oxo-N-[(1R)-1-phenylethyl]-3-(propan-2-yl)-4,5-dihydropyrazolo[1,5-a]pyrazine-2-carboxamide] | 1.2
Cc1cccc2ncc(-c3cn4nc(C(=O)N[C@@H](C)c5cnccn5)c(C(C)C)c4c(=O)[nH]3)cc12 [Example 4-28, 6-(5-Methylquinolin-3-yl)-4-oxo-3-(propan-2-yl)-N-[(7S)-1-(pyrazin-2-yl)ethyl]-4,5-dihydropyrazolo[1,5-a]pyrazine-2-carboxamide] | 2.15
Cc1cccc2ncc(-c3cn4nc(C(=O)Nc5cccc6ncccc56)c(C(C)C)c4c(=O)[nH]3)cc12 [Example 4-29, 6-(5-Methylquinolin-3-yl)-4-oxo-3-(propan-2-yl)-N-(quinolin-5-yl)-4,5-dihydropyrazolo[1,5-a]pyrazine-2-carboxamide] | 1.6
Cc1cccc2ncc(-c3cn4nc(C(=O)NCC(C)Cn5cccn5)c(C(C)C)c4c(=O)[nH]3)cc12 (stereo not drawn) [Example 4-30, 3-Isopropyl-N-[2-methyl-3-(1H-pyrazol-1-yl)propyl]-6-(5-methylquinolin-3-yl)-4-oxo-4,5-dihydropyrazolo[1,5-a]pyrazine-2-carboxamide] | 2.7
Cc1cccc2ncc(-c3cn4nc(C(=O)NCC(N)=O)c(C(C)C)c4c(=O)[nH]3)cc12 [Example 4-31, N-(2-Amino-2-oxoethyl)-6-(5-methylquinolin-3-yl)-4-oxo-3-(propan-2-yl)-4,5-dihydropyrazolo[1,5-a]pyrazine-2-carboxamide] | 7.4
Cc1cccc2ncc(-c3cn4nc(C(=O)N[C@H]5CC[C@H](O)CC5)c(C(C)C)c4c(=O)[nH]3)cc12 [Example 4-32, N-(trans-4-Hydroxycyclohexyl)-3-isopropyl-6-(5-methylquinolin-3-yl)-4-oxo-4,5-dihydropyrazolo[1,5-a]pyrazine-2-carboxamide] | 6.5
Cc1cccc2ncc(-c3cn4nc(C(=O)NCC(C)(C)C)c(C(C)C)c4c(=O)[nH]3)cc12 [Example 4-33, N-(2,2-Dimethylpropyl)-6-(5-methylquinolin-3-yl)-4-oxo-3-(propan-2-yl)-4,5-dihydropyrazolo[1,5-a]pyrazine-2-carboxamide] | 1.9
CCn1nccc1C(C)NC(=O)c1nn2cc(-c3cnc4cccc(C)c4c3)[nH]c(=O)c2c1C(C)C (stereo not drawn) [Example 4-34, N-[1-(1-Ethyl-1H-pyrazol-5-yl)ethyl]-3-isopropyl-6-(5-methylquinolin-3-yl)-4-oxo-4,5-dihydropyrazolo[1,5-a]pyrazine-2-carboxamide] | 1.09
Cc1cccc2ncc(-c3cn4nc(C(=O)NCCCS(C)(=O)=O)c(C(C)C)c4c(=O)[nH]3)cc12 [Example 4-35, N-[3-(Methansulfonyl)propyl]-6-(5-methylquinolin-3-yl)-4-oxo-3-(propan-2-yl)-4,5-dihydropyrazolo[1,5-a]pyrazine-2-carboxamide] | 1.9
CCn1cc(CNC(=O)c2nn3cc(-c4cnc5cccc(C)c5c4)[nH]c(=O)c3c2C(C)C)c(C)n1 [Example 4-36, N-[(1-Ethyl-3-methyl-1H-pyrazol-4-yl)methyl]-6-(5-methylquinolin-3-yl)-4-oxo-3-(propan-2-yl)-4,5-dihydropyrazolo[1,5-a]pyrazine-2-carboxamide] | 0.785
Cc1cccc2ncc(-c3cn4nc(C(=O)NCc5cnn(C)c5)c(C(C)C)c4c(=O)[nH]3)cc12 [Example 4-37, N-[(1-Methyl-1H-pyrazol-4-yl)methyl]-6-(5-methylquinolin-3-yl)-4-oxo-3-(propan-2-yl)-4,5-dihydropyrazolo[1,5-a]pyrazine-2-carboxamide] | 2
Cc1cccc2ncc(-c3cn4nc(C(=O)NC5Cc6ccccc6C5)c(C(C)C)c4c(=O)[nH]3)cc12 [Example 4-38, N-(2,3-Dihydro-1H-inden-2-yl)-6-(5-methylquinolin-3-yl)-4-oxo-3-(propan-2-yl)-4,5-dihydropyrazolo[1,5-a]pyrazine-2-carboxamide] | 1.3
Cc1cccc2ncc(-c3cn4nc(C(=O)NCCOCC(F)(F)F)c(C(C)C)c4c(=O)[nH]3)cc12 [Example 4-39, 6-(5-Methylquinolin-3-yl)-4-oxo-3-(propan-2-yl)-N-[2-(2,2,2-trifluoroethoxy)ethyl]-4,5-dihydropyrazolo[1,5-a]pyrazine-2-carboxamide] | 1.85
Cc1cccc2ncc(-c3cn4nc(C(=O)NCCn5ccc(C6CC6)n5)c(C(C)C)c4c(=O)[nH]3)cc12 [Example 4-40, N-[2-(3-Cyclopropyl-1H-pyrazol-1-yl)ethyl]-6-(5-methylquinolin-3-yl)-4-oxo-3-(propan-2-yl)-4,5-dihydropyrazolo[1,5-a]pyrazine-2-carboxamide] | 0.85
